Laboratory results as given in patent US4684664A, “Derivatives of β-(4-isocyano-1,2,3,4-diepoxycyclopentyl) acrylic acid” (Kureha Kagaku Kogyo Kabushiki Kaisha, priority 1984, dated 1987).
Converted amounts (≈) assume the structure as drawn.

Columns and labels:
[1] = test system: Proteus vulgaris HX-19; assay: Antibacterial activity, agar-dilution MIC, organism No. 21; type: cell-based; conditions: Proteus vulgaris, HX19; Organism No. 21, bouillon-agar; read-out: Minimum Inhibitory Concentration
Method in brief: (§1)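 Read-out is the minimum inhibitory concentration, given as μg/ml of the culture medium, obtained by agar dilution using bouillon agar.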

[2] = test system: Salmonella shottmuelleri 8006; assay: Antibacterial activity, agar-dilution MIC, organism No. 11; type: cell-based; conditions: Salmonella, 8006; Organism No. 11, bouillon-agar; read-out: Minimum Inhibitory Concentration
Method in brief: as §1

[3] = test system: Salmonella typhi 901; assay: Antibacterial activity, agar-dilution MIC, organism No. 9; type: cell-based; conditions: Salmonella enterica, TYPHI, read-out: Minimum Inhibitory Concentration
Method in brief: as §1

[4] = test system: Salmonella typhimurium IID 971; assay: Antibacterial activity, agar-dilution MIC, organism No. 8; type: cell-based; conditions: Salmonella enterica; Organism No. 8, bouillon-agar; read-out: Minimum Inhibitory Concentration
Method in brief: as §1

[5] = test system: Proteus mirabilis IFO 3849; assay: Antibacterial activity, agar-dilution MIC, organism No. 19; type: cell-based; conditions: Proteus mirabilis, IFO3849; Organism No. 19, bouillon-agar; read-out: Minimum Inhibitory Concentration
Method in brief: as §1

[6] = test system: Proteus morganii IFO 3848; assay: Antibacterial activity, agar-dilution MIC, organism No. 18; type: cell-based; conditions: Morganella morganii, IFO3848; Organism No. 18, bouillon-agar; read-out: Minimum Inhibitory Concentration
Method in brief: as §1

[7] = test system: Pseudomonas aeruginosa IFO 3445; assay: Antibacterial activity, agar-dilution MIC, organism No. 15; type: cell-based; conditions: Pseudomonas aeruginosa, IFO3445; Organism No. 15, bouillon-agar; read-out: Minimum Inhibitory Concentration
Method in brief: as §1

[8] = test system: Proteus rettgeri IFO 3850; assay: Antibacterial activity, agar-dilution MIC, organism No. 22; type: cell-based; conditions: Providencia rettgeri, IFO3850; Organism No. 22, bouillon-agar; read-out: Minimum Inhibitory Concentration
Method in brief: as §1

[9] = test system: Salmonella paratyphi-A 1015; assay: Antibacterial activity, agar-dilution MIC, organism No. 10; type: cell-based; conditions: Salmonella enterica, PARATYPHI, read-out: Minimum Inhibitory Concentration
Method in brief: as §1

[10] = test system: Pseudomonas aeruginosa NCTC 10490; assay: Antibacterial activity, agar-dilution MIC, organism No. 16; type: cell-based; conditions: Pseudomonas aeruginosa, NCTC10490; Organism No. 16, bouillon-agar; read-out: Minimum Inhibitory Concentration
Method in brief: as §1

[11] = test system: Streptococcus faecium IFO 3826; assay: Antibacterial activity, agar-dilution MIC, organism No. 27; type: cell-based; conditions: Enterococcus faecium, IFO3826; Organism No. 27, bouillon-agar; read-out: Minimum Inhibitory Concentration
Method in brief: as §1

[12] = test system: Staphylococcus aureus Terajima; assay: Antibacterial activity, agar-dilution MIC, organism No. 2; type: cell-based; conditions: Staphylococcus aureus; Organism No. 2, bouillon-agar; read-out: Minimum Inhibitory Concentration
Method in brief: as §1

[13] = test system: Streptococcus pyogenes Cook; assay: Antibacterial activity, agar-dilution MIC, organism No. 4; type: cell-based; conditions: Streptococcus pyogenes; Organism No. 4, bouillon-agar; read-out: Minimum Inhibitory Concentration
Method in brief: as §1

[14] = test system: Staphylococcus aureus MS 353; assay: Antibacterial activity, agar-dilution MIC, organism No. 3; type: cell-based; conditions: Staphylococcus aureus, MS353; Organism No. 3, bouillon-agar; read-out: Minimum Inhibitory Concentration
Method in brief: as §1

[15] = test system: Proteus vulgaris OX-19; assay: Antibacterial activity, agar-dilution MIC, organism No. 20; type: cell-based; conditions: Proteus vulgaris, OX19; Organism No. 20, bouillon-agar; read-out: Minimum Inhibitory Concentration
Method in brief: as §1

[16] = test system: Salmonella enteritidis G 14; assay: Antibacterial activity, agar-dilution MIC, organism No. 12; type: cell-based; conditions: Salmonella enterica, ENTERITIDIS; Organism No. 12, bouillon-agar; read-out: Minimum Inhibitory Concentration
Method in brief: as §1

[17] = test system: Escherichia coli NIHJ-JC-2; assay: Antibacterial activity, agar-dilution MIC, organism No. 5; type: cell-based; conditions: Escherichia coli, NIHJJC2; Organism No. 5, bouillon-agar; read-out: Minimum Inhibitory Concentration
Method in brief: as §1

[18] = test system: Streptococcus pyogenes IFO 3340; assay: Antibacterial activity, agar-dilution MIC, organism No. 26; type: cell-based; conditions: Streptococcus pyogenes, IFO3340; Organism No. 26, bouillon-agar; read-out: Minimum Inhibitory Concentration
Method in brief: as §1

[19] = test system: Klebsiella pneumoniae PCI-602; assay: Antibacterial activity, agar-dilution MIC, organism No. 7; type: cell-based; conditions: Klebsiella pneumoniae, PCI602; Organism No. 7, bouillon-agar; read-out: Minimum Inhibitory Concentration
Method in brief: as §1

[20] = test system: Aspergillus niger IFO 6342; assay: Antifungal activity, agar-dilution MIC, organism No. 30; type: cell-based; conditions: Aspergillus niger, IFO6342; Organism No. 30, bouillon-agar; read-out: Minimum Inhibitory Concentration
Method in brief: as §1

[21] = test system: Enterobacter cloacae 963; assay: Antibacterial activity, agar-dilution MIC, organism No. 24; type: cell-based; conditions: Enterobacter cloacae, 963; Organism No. 24, bouillon-agar; read-out: Minimum Inhibitory Concentration
Method in brief: as §1

[22] = test system: Escherichia coli K12 C600 IAM 1264; assay: Antibacterial activity, agar-dilution MIC, organism No. 6; type: cell-based; conditions: Escherichia coli, IAM1264; Organism No. 6, bouillon-agar; read-out: Minimum Inhibitory Concentration
Method in brief: as §1

[23] = test system: Staphylococcus aureus FDA 209PJc-1; assay: Antibacterial activity, agar-dilution MIC, organism No. 1; type: cell-based; conditions: Staphylococcus aureus, FDA209PJC1; Organism No. 1, bouillon-agar; read-out: Minimum Inhibitory Concentration
Method in brief: as §1

[24] = test system: Mycoplasma pneumoniae IID817; assay: Antimycoplasmal activity, MIC by phenol red colour change, organism No. 28; type: cell-based; conditions: Mycoplasma, IID817; Organism No. 28, PPLO broth + 1% glucose, 37° C.; read-out: Minimum Inhibitory Concentration (MIC)
Method: Mycoplasma pneumoniae IID817 was used as the test microorganism in a culture medium prepared by adding 1% of glucose to "PPLO broth (manufactured by Difco Co.) liquid culture medium" at 37° C. with phenol red as an indicator, thereby culturing the test microorganism.

[25] = test system: Bacillus subtilis ATCC 6633; assay: Antibacterial activity, agar-dilution MIC, organism No. 14; type: cell-based; conditions: Bacillus subtilis, ATCC6633; Organism No. 14, bouillon-agar; read-out: Minimum Inhibitory Concentration
Method in brief: as §1

[26] = test system: Pseudomonas aeruginosa PAO 1; assay: Antibacterial activity, agar-dilution MIC, organism No. 17; type: cell-based; conditions: Pseudomonas aeruginosa, PAO1; Organism No. 17, bouillon-agar; read-out: Minimum Inhibitory Concentration
Method in brief: as §1

[27] = Stability in a non-solvent state; type: physicochemical
[28] = test system: Candida albicans IAM 4905; assay: Antifungal activity, agar-dilution MIC, organism No. 29; type: cell-based; conditions: Candida albicans, IAM4905; Organism No. 29, bouillon-agar; read-out: Minimum Inhibitory Concentration
Method in brief: as §1

[29] = test system: Serratia marcescens IAM 1184; assay: Antibacterial activity, agar-dilution MIC, organism No. 13; type: cell-based; conditions: Serratia marcescens, IAM1184; Organism No. 13, bouillon-agar; read-out: Minimum Inhibitory Concentration
Method in brief: as §1

[30] = test system: Micrococcus luteus ATCC 9341; assay: Antibacterial activity, agar-dilution MIC, organism No. 25; type: cell-based; conditions: Micrococcus luteus, ATCC9341; Organism No. 25, bouillon-agar; read-out: Minimum Inhibitory Concentration
Method in brief: as §1

[31] = test system: Enterobacter aerogenes ATCC 13048; assay: Antibacterial activity, agar-dilution MIC, organism No. 23; type: cell-based; conditions: Klebsiella aerogenes, ATCC13048; Organism No. 23, bouillon-agar; read-out: Minimum Inhibitory Concentration
Method in brief: as §1

SMILES | MIC [1] [mg/L] | MIC [2] [mg/L] | MIC [3] [mg/L] | MIC [4] [mg/L] | MIC [5] [mg/L] | MIC [6] [mg/L] | MIC [7] [mg/L] | MIC [8] [mg/L] | MIC [9] [mg/L] | MIC [10] [mg/L] | MIC [11] [mg/L] | MIC [12] [mg/L] | MIC [13] [mg/L] | MIC [14] [mg/L] | MIC [15] [mg/L] | MIC [16] [mg/L] | MIC [17] [mg/L] | MIC [18] [mg/L] | MIC [19] [mg/L] | MIC [20] [mg/L] | other results
[C-]#[N+]C12CC3(/C=C/C(=O)OCC)OC3C1O2 (stereo not drawn) [Compound No. 2, ethyl β-substituted acrylate] | 0.2 (≈ 0.904 µM) | 6.25 (≈ 28.3 µM) | 6.25 (≈ 28.3 µM) | 25 (≈ 113 µM) | 25 (≈ 113 µM) | 6.25 (≈ 28.3 µM) | > 200 | > 200 | 6.25 (≈ 28.3 µM) | > 200 | 12.5 (≈ 56.5 µM) | 12.5 (≈ 56.5 µM) | > 200 | 12.5 (≈ 56.5 µM) | 6.25 (≈ 28.3 µM) | 6.25 (≈ 28.3 µM) | 50 (≈ 226 µM) | 100 (≈ 452 µM) | 6.25 (≈ 28.3 µM) | 12.5 (≈ 56.5 µM) | MIC [21]: > 200 mg/L; MIC [22]: 25 mg/L (≈ 113 µM); MIC [23]: 12.5 mg/L (≈ 56.5 µM); MIC [24]: < 0.2 mg/L; MIC [25]: 50 mg/L (≈ 226 µM); MIC [26]: > 200 mg/L; stability (in words) [27]: decomposing and colouring tendency in a non-solvent state; MIC [28]: 3.13 mg/L (≈ 14.1 µM); MIC [29]: > 200 mg/L; MIC [30]: 1.56 mg/L (≈ 7.05 µM); MIC [31]: > 200 mg/L
[C-]#[N+]C12CC3(/C=C/C(=O)OCc4ccccc4)OC3C1O2 (stereo not drawn) [Compound No. 10, benzyl β-substituted acrylate] | < 0.1 | < 0.1 | 0.78 (≈ 2.75 µM) | 3.13 (≈ 11 µM) | 3.13 (≈ 11 µM) | 0.39 (≈ 1.38 µM) | > 100 | 6.25 (≈ 22.1 µM) | 0.78 (≈ 2.75 µM) | > 100 | 1.56 (≈ 5.51 µM) | 1.56 (≈ 5.51 µM) | 3.13 (≈ 11 µM) | 0.39 (≈ 1.38 µM) | < 0.1 | 3.13 (≈ 11 µM) | 6.25 (≈ 22.1 µM) | 3.13 (≈ 11 µM) | < 0.1 | 1.56 (≈ 5.51 µM) | MIC [21]: 50 mg/L (≈ 177 µM); MIC [22]: 3.13 mg/L (≈ 11 µM); MIC [23]: 0.39 mg/L (≈ 1.38 µM); MIC [24]: < 0.2 mg/L; MIC [25]: 0.78 mg/L (≈ 2.75 µM); MIC [26]: > 100 mg/L; stability (in words) [27]: decomposed and coloured when left in a non-solvent state; MIC [28]: 0.8 mg/L (≈ 2.82 µM); MIC [29]: 12.5 mg/L (≈ 44.1 µM); MIC [30]: < 0.1 mg/L; MIC [31]: > 100 mg/L
[C-]#[N+]C12CC3(/C=C/C(=O)OCc4cc([N+](=O)[O-])ccc4O)OC3C1O2 (stereo not drawn) [Compound No. 17] | > 200 | > 200 | 200 (≈ 581 µM) | > 200 | > 200 | > 200 | > 200 | > 200 | > 200 | > 200 | > 200 | > 200 | > 200 | > 200 | > 200 | > 200 | > 200 | > 200 | > 200 | > 100 | MIC [21]: > 200 mg/L; MIC [22]: > 200 mg/L; MIC [23]: > 200 mg/L; MIC [24]: 100 mg/L; MIC [25]: > 200 mg/L; MIC [26]: > 200 mg/L; stability (in words) [27]: tendency thereof of decomposition in a non-solvent state; MIC [28]: > 100 mg/L; MIC [29]: > 200 mg/L; MIC [30]: 200 mg/L (≈ 581 µM); MIC [31]: > 200 mg/L
[C-]#[N+]C12CC3(/C=C/C(=O)O)OC3C1O2 (stereo not drawn) [α substituted acrylic acid, β-(4-isocyano-1,2-3,4-diepoxycyclopentyl)acrylic acid, reference compound] | 6.25 (≈ 32.4 µM) | 12.5 (≈ 64.7 µM) | 6.25 (≈ 32.4 µM) | 12.5 (≈ 64.7 µM) | 12.5 (≈ 64.7 µM) | 12.5 (≈ 64.7 µM) | 200 (≈ 1040 µM) | 50 (≈ 259 µM) | 12.5 (≈ 64.7 µM) | 200 (≈ 1040 µM) | 50 (≈ 259 µM) | 50 (≈ 259 µM) | 25 (≈ 129 µM) | 25 (≈ 129 µM) | 6.25 (≈ 32.4 µM) | 3.13 (≈ 16.2 µM) | 12.5 (≈ 64.7 µM) | 6.25 (≈ 32.4 µM) | 50 (≈ 259 µM) | 25 (≈ 129 µM) | MIC [21]: 100 mg/L (≈ 518 µM); MIC [22]: 12.5 mg/L (≈ 64.7 µM); MIC [23]: 25 mg/L (≈ 129 µM); MIC [24]: < 0.2 mg/L; MIC [25]: 25 mg/L (≈ 129 µM); MIC [26]: 200 mg/L (≈ 1040 µM); MIC [28]: 12.5 mg/L (≈ 64.7 µM); MIC [29]: 50 mg/L (≈ 259 µM); MIC [30]: 12.5 mg/L (≈ 64.7 µM); MIC [31]: 200 mg/L (≈ 1040 µM)
